# Key:
# mouse melanoma B16 [1] = experiment: Example 7: chlorogenic acid-5-flurouracil combination against mouse melanoma B16; conditions: 5-flurouracil 500 mg/kg × 4, i.p.
# Protocol: Next day after inoculation, animals were divided into groups, weighed, and administration of drugs started. Normal saline was administrated to mice in the negative control group by peritoneal injection at 0.2 ml/10 g, once a day.
# Each group contains 12 animals. […] Tumor control rate (%) was calculated based on tumor weight.
# mouse melanoma B16 [2] = experiment: Example 6: chlorogenic acid-adriamycin or chlorogenic acid-cisplatin combination against mouse melanoma B16; assay type: in vivo
# Description: (§1) Each group contains 15 animals.
# [3] = system: M1-type macrophage marker iNOS and M2-type macrophage marker Arg; experiment: Example 2: maintenance of M1-type macrophages (LPS+INFγ) in mouse melanoma B16 model; assay type: in vivo; conditions: LPS + INFγ + chlorogenic acid 5, 10, 20 mg/kg, dose-dependent
# Protocol: Each group includes 15 animals. After successful anesthesia of mice, bilateral eyeballs were removed and mice were killed by bleeding. […] Mice were placed in supine position, with segmental […] being toward up. 5 ml serum-free DMEM medium preheated at 37° C. was drawn out using 5 ml aseptic syringe, and middle-lower abdominal skin of mice was lifted with a tweezer, then 5 ml pre-suctioned serum-free DMEM medium preheated at 37° C. was injected to abdominal cavity (note: needlepoint being toward up, avoiding intestinal canal and fat). After that, bilateral peritoneal wall was gently kneaded and pressed for about 20-30 seconds, to make the intraperitoneal fluid fully flow. When collecting the peritoneal fluid, a little cut was opened on mouse hypogastric region using a surgical scissor, and skin was […] toward two sides, to thoroughly expose the peritoneum, then it was wiped and cleaned with 75% alcoholic cotton balls for sterilization. […] (3) Cell phenotype was detected by flow cytometer, and the corresponding marker of same sample was determined using real-time fluorescent quantified PCR. […]
# mouse melanoma B16 [4] = experiment: Example 4: tumor inhibitory rate of chlorogenic acid against mouse melanoma B16
# Description: (§2) After inoculation, animals were divided into groups next day, weighed, and administration of drugs started.
# Each group includes 15 animals.
# [5] = system: M1-type macrophage markers iNOS, IL-12, TNF-α and M2-type macrophage marker Arg; experiment: Example 1: macrophage marker expression (flow cytometer, real-time fluorescent quantified PCR) in mouse melanoma B16 model; assay type: in vivo; conditions: 5, 10, 20 mg/kg i.p. once a day for 13 days
# Protocol: Each group has 15 animals. […] After successful anesthesia of mice, bilateral eyeballs were removed and mice were killed by bleeding. […] Mice were placed in supine position, with segmental […] being toward up. 5 ml serum-free DMEM medium preheated at 37° C. was drawn out using 5 ml aseptic syringe, and middle-lower abdominal skin of mice was lifted with a tweezer, then 5 ml pre-suctioned serum-free DMEM medium preheated at 37° C. was injected to abdominal cavity (note: needlepoint being toward up, avoiding intestinal canal and fat). After that, bilateral peritoneal wall was gently kneaded and pressed for about 20-30 seconds, to make the intraperitoneal fluid fully flow. When collecting the peritoneal fluid, a little cut was opened on mouse hypogastric region using a surgical scissor, and skin was […] toward two sides, to thoroughly expose the peritoneum, then it was wiped and cleaned with 75% alcoholic cotton balls for sterilization. Further, about […] of little cut was opened on mouse peritoneum using ophthalmic scissors, and the peritoneal fluid was drawn back with 5 ml aseptic syringe (Try not to absorb intestinal canal and fat, otherwise, it is easy to cause contamination of fibroblasts), then transferred to 15.0 ml centrifuge tube and centrifugated at 1200 rpm/min for 5 min, to remove the supernatant fluid. The residue was re-suspended in sterile normal saline at […] and transferred into 1.5 ml centrifuge tube for use. […] During enzymatic digestion, centrifuge tubes were shaken every 10-15 minutes. When the fluid in centrifuge tubes became turbid, the piece of tumor tissue had already disintegrated and lost its massive shape. Once being shaken, the mass would become cell clumps or single cell, indicating the tumor tissue piece had already been fully digested. The enzymatic digestion time can be suitably shortened or elongated as the digestion degree of tumor tissue. […] Cells were re-suspended in sterile normal saline at […], and transferred to 1.5 ml centrifuge tubes for use. (3) Cell phenotype was detected by flow cytometer, and the corresponding marker of same sample was determined using real-time fluorescent quantified PCR. Results were shown in FIGS. 1-3, in which FIGS. 1-3 are respectively the detection result graphs of iNOS, IL-12, Arg expression in example 1. FIG. 4 is the detection result graph of TNF-α expression in example 1.
# [6] = system: M1-type and M2-type macrophages (iNOS, IL-10, Arg expression); experiment: Example 3: transformation of M2-type to M1-type macrophages (IL-4) in mouse melanoma B16 model; assay type: in vivo; conditions: IL-4 + chlorogenic acid 5, 10, 20 mg/kg
# Protocol: Each group includes 15 animals. After successful anesthesia of mice, bilateral eyeballs were removed and mice were killed by bleeding. […] Mice were placed in supine position, with segmental […] being toward up. 5 ml serum-free DMEM medium preheated at 37° C. was drawn out using 5 ml aseptic syringe, and middle-lower abdominal skin of mice was lifted with a tweezer, then 5 ml medium was injected to abdominal cavity (note: needlepoint being toward up, avoiding intestinal canal and fat). After that, bilateral peritoneal wall was gently kneaded and pressed for about 20-30 seconds, to make the intraperitoneal fluid fully flow. When collecting the peritoneal fluid, a little cut was opened on mouse hypogastric region using a surgical scissor, and skin was […] toward two sides, to thoroughly expose the peritoneum, then it was wiped and cleaned with 75% alcoholic cotton balls for sterilization. […] (3) Cell phenotype was detected by flow cytometer, and the corresponding marker of same sample was determined using real-time fluorescent quantified PCR. […]
# mouse melanoma B16 [7] = experiment: Example 5: chlorogenic acid-cyclophosphamide combination against mouse melanoma B16
# Description: as §2, §1
# [8] = dose-dependent, strongest at 20 mg/kg
# [9] = cyclophosphamide 60 mg/kg × 1, i.p.
smiles,measurement,setting,value
"O=c1[nH]cc(F)c(=O)[nH]1 [5-flurouracil, 5-fluorouracil]",Tumor inhibitory rate (%),mouse melanoma B16 [1],86.80%
same,Tumor weight (g) x ± SD,mouse melanoma B16 [1],0.30 ± 0.18 g
same,Body weight (g) x ± SD Initial,"mouse melanoma B16 [1]; BALB/c mice, before dosing",19.17 ± 0.72 g
"COc1cccc2c1C(=O)c1c(O)c3c(c(O)c1C2=O)C[C@@](O)(C(=O)CO)C[C@@H]3O[C@H]1C[C@H](N)[C@H](O)[C@H](C)O1 [Adriamycin, adriamycin]",Body weight change rate (%),"mouse melanoma B16 [2]; adriamycin 3 mg/kg × 6, i.p.",22.39%
same,Tumor inhibitory rate (%),"mouse melanoma B16 [2]; adriamycin 3 mg/kg × 6, i.p.",58.89%
same,Tumor weight (g) x ± SD,"mouse melanoma B16 [2]; adriamycin 3 mg/kg × 6, i.p.",1.90 ± 0.56 g
"O=C(/C=C/c1ccc(O)c(O)c1)O[C@@H]1C[C@](O)(C(=O)O)C[C@@H](O)[C@H]1O [Chlorogenic acid, 3-O-caffeoylquinic acid]",state of M2-type macrophage marker Arg (FIG. 6),[3],relatively lower state
same,"expression state of M1-type macrophage markers (iNOS, FIG. 5)",[3]; highest at 20 mg/kg,maintain the high expression state
same,Tumor inhibitory rate (%),"mouse melanoma B16 [4]; 5 mg/kg × 13, i.p. once a day",17.23%
same,Tumor weight (g) x ± SD,"mouse melanoma B16 [4]; 5 mg/kg × 13, i.p. once a day",2.70 ± 0.76 g
same,Tumor inhibitory rate (%),"mouse melanoma B16 [4]; 10 mg/kg × 13, i.p. once a day",43.87%
same,Tumor weight (g) x ± SD,"mouse melanoma B16 [4]; 10 mg/kg × 13, i.p. once a day",1.83 ± 0.86 g
same,Tumor inhibitory rate compared with cyclophosphamide,mouse melanoma B16 [4]; 20 mg/kg chlorogenic acid vs 60 mg/kg cyclophosphamide,close to that of cyclophosphamide
same,Tumor inhibitory rate (%),"mouse melanoma B16 [4]; 20 mg/kg × 13, i.p. once a day",48.66%
same,Tumor weight (g) x ± SD,"mouse melanoma B16 [4]; 20 mg/kg × 13, i.p. once a day",1.68 ± 0.69 g
same,effect on growth of mouse melanoma B16,"mouse melanoma B16 [4]; intraperitoneal injection, 5-20 mg/kg × 13, certain dose-effect relationship",obviously inhibitory effect
same,expression of M1-type macrophage marker TNF-α (FIG. 4),[5],promote the expression
same,expression of M1-type macrophage marker IL-12 (FIG. 2),[5]; [8],obviously promote the expression
same,expression of M1-type macrophage marker iNOS (FIG. 1),[5]; [8],obviously promote the expression
same,expression of M2-type macrophage marker Arg (FIG. 3),[5]; [8],obviously inhibit the expression
same,effect on the anti-tumor effect of adriamycin,mouse melanoma B16 [2]; 20 mg/kg chlorogenic acid + 3 mg/kg adriamycin,significantly potentialize
same,effect on the anti-tumor effect of cisplatin,mouse melanoma B16 [2]; 20 mg/kg chlorogenic acid + 3 mg/kg cisplatin,significantly potentialize
same,growth of M1-type macrophage cells (FIG. 7),[6],positive correlation with the dose
same,growth of M2-type macrophage cells (FIG. 8),[6],negative correlation with the dose
same,effect of combination on anti-tumor effects of cyclophosphamide,mouse melanoma B16 [7]; 20 mg/kg chlorogenic acid combined with cyclophosphamide 60 mg/kg,obviously improve anti-tumor effects of cyclophosphamide
"N.N.[Cl][Pt][Cl] [Cisplatin, cisplatin]",Tumor inhibitory rate (%),"mouse melanoma B16 [2]; cisplatin 3 mg/kg × 6, i.p.",65.97%
same,Tumor weight (g) x ± SD,"mouse melanoma B16 [2]; cisplatin 3 mg/kg × 6, i.p.",1.58 ± 0.69 g
"O=P1(N(CCCl)CCCl)NCCCO1 (stereo not drawn) [cyclophosphamide, reference compound]",Tumor inhibitory rate (%),mouse melanoma B16 [4]; [9],57.79%
same,Tumor weight (g) x ± SD,mouse melanoma B16 [4]; [9],1.38 ± 0.62 g
same,Body weight (g) x ± SD End,"mouse melanoma B16 [4]; cyclophosphamide 60 mg/kg × 1, i.p., C57BL/6 mice, end of study",23.01 ± 1.04 g
same,Tumor inhibitory rate (%),mouse melanoma B16 [7]; [9],61.40%
same,Tumor weight (g) x ± SD,mouse melanoma B16 [7]; [9],1.46 ± 0.54 g
same,Body weight (g) x ± SD End,"mouse melanoma B16 [7]; cyclophosphamide 60 mg/kg × 1, i.p., end of study",22.58 ± 1.15 g
